Patent US9642854B2, “Flavanoid compounds and process for preparation thereof” (Council of Scientific & Industrial Research, priority 2009, dated 2017)

Legend:
[1] = test system: H. pylori; experiment: Anti H. pylori screening by disc diffusion susceptibility assay; format: cell-based, Helicobacter pylori; conditions: spacer molecules
Experimental: The discs were impregnated with […] of each of the compounds, dissolved either in ethanol or DMSO, and the zone of inhibition was measured after 72 h of growth under microaerophilic conditions at 37° C. Inhibition zone diameter ranging 10-20 mm was given a score of ^+, 20-30 mm as ^++ and that of >30 mm as ^+++, as obtained employing dose range of […]/disc. The detailed structural information of the molecules is provided under ‘Description of the Compounds’.
Methods and protocols for the determination of inhibition zone diameter are as stated under Experiment 1, and that of MIC values by microbroth dilution assay as in Experiment 3. ‘Nil’ means zone of inhibition below 10 mm.
The anti H. pylori activity of all 16 flavonoid molecules, 2 naturally isolated and 14 synthetic derivatives, was screened by disc diffusion sensitivity assay employing 2 clinical strains HP001 and HP002, and three standard strains ATCC® 700392, 43504 and 49503. A 0.5 mL inoculum (10^8 CFU/mL) for each bacterial strain tested was flooded on freshly prepared Brain Heart Infusion (BHI) agar plates supplemented with 7% FCS, 0.5% IsoVitalex and 0.0025% DENT® and the discs (5 mm diameter) containing different compounds or antibiotics (dissolved either in ethanol or DMSO) were placed on the agar surface. After incubation for 3 days in a microaerophilic atmosphere at 37° C., the diameter of the zone of inhibition was measured (Glupczynsky, 1996; McNulty et al., 2002).

[2] = test system: H. pylori; experiment: MIC and MBC by microbroth dilution assay; format: cell-based, Helicobacter pylori; conditions: Helicobacter pylori
Experimental: The compounds, serially diluted ([…]) in Muller Hinton broth containing 5% FCS, were incubated in 96-well microtitre plate containing fresh cultures of HP001 (˜5.5×10^6 CFU/mL) or ATCC® 43504 (2.65×10^6 CFU/ml) in a final volume of […]. After 72-h of incubation under microaerophilic condition at 37° C., […] of cultures wherein no growth had been detected were streaked on fresh brain heart infusion agar plates for MBC determination.
In microbroth dilution assay employing one clinical and one standard strain, both the bacteriostatic and the bactericidal values were determined for all four compounds as well as for clarithromycin (Table 4). Two-fold serial dilutions were prepared in 96-well microtitre plate containing a total volume of 0.1 mL Mueller Hinton broth supplemented with 5% FCS. A 3-day old liquid culture was diluted 10 times in Mueller Hinton broth and 0.1 mL of these cultures was inoculated into each well to give a final concentration of ˜10^6 CFU/mL. The plates were incubated for 3 days in a microaerophilic atmosphere at 37° C. Following incubation, the plates were examined visually, and the lowest concentration showing complete inhibition of growth was recorded as the MIC of the respective compound (Hachem et al., 1996). Aliquots (0.1 mL) of 72-h culture in which no growth had been detected were taken from the wells of the above microtitre plates and used to streak on fresh BHI agar plates.

[3] = ATCC43504, microbroth dilution, ATCC 43504

Compound	Inhibition Zone Diameter (mm) ([1]; ATCC 43504)	Inhibition Zone Diameter (mm) ([1]; HP001)	MIC [2, 3] [µg/mL]	MIC ([2]; microbroth dilution, HP001) [µg/mL]
CCCN1CCOCC1 [reference compound]	Nil (‘Nil’ means zone of inhibition below 10 mm.)	Nil (‘Nil’ means zone of inhibition below 10 mm.)	> 400	> 400
COCCCN1CCOCC1 [reference compound]	Nil (‘Nil’ means zone of inhibition below 10 mm.)	Nil (‘Nil’ means zone of inhibition below 10 mm.)	> 400	> 400
CCCN1CCN(C)CC1 [reference compound]	Nil (‘Nil’ means zone of inhibition below 10 mm.)	Nil (‘Nil’ means zone of inhibition below 10 mm.)	> 400	> 400
CCCN1CCCCC1 [reference compound]	Nil (‘Nil’ means zone of inhibition below 10 mm.)	Nil (‘Nil’ means zone of inhibition below 10 mm.)	> 400	> 400
